pIC50: −log10 of the molar value.
Columns and labels:
[1] = system: NEM157i, SU-DIPG-IVi and NEM163i DMG cells; assay: Proliferation / cell viability assay (Sulforhodamine B) in DMG cell lines; type: cell-based, human
Experimental: Cell growth was measured with the In vitro Toxicology Assay kit (Sulforhodamine B, Sigma Aldrich, Saint Quentin Fallavier, France) according to manufacturer's instructions. Cells were plated at a density of 2000 cells per well in 96-well plates in triplicates. Absorbance was measured at 565 nm using the CLARIOstar multiplate reader (BMG Labtech, Champigny-sur-Marne, France) at indicated time points.

[2] = system: NEM157i and SU-DIPG-IVi DMG cells; assay: Apoptosis assay (Annexin V-PE / 7-AAD flow cytometry) in DMG cells; type: cell-based, human; settings: 5 days of treatment
Text: After exposure to drugs at indicated concentrations and times, cells were labeled with Annexin V-PE (BD Biosciences, Le Pont de Claix, France) and 7-AminoActinomycin D (7-AAD) (BD Bioscience) and analyzed using Flow Cytometry as described.

[3] = system: DMG cell lines including primary BXdmg1 cells; assay: DMG spheroid formation assay; type: cell-based, human; settings: 24 hours; GSK-126 20 μM for NEM157i and 15 μM for the others
Experimental: For spheroid formation assays, 10^4 cells were used per well in a 96-well plate. Volume of methylcellulose/medium/cells and inhibitors (10, 15 or 20 μM) mixture per well was 100 μL with a final concentration of methylcellulose at 0.5%. After rapid and gentle homogenization, the mixture was placed on a round-bottom cell culture microplate (U-shaped) treated to limit cell adhesion. After, spheroids were incubated in an incubator at 37° C. and 5% CO2 for 24 hours. Photos and films of spheroids were taken by an InCellis cell imager (Bertin instruments, Montigny-le-bretonneux, France).

[4] = system: SU-DIPG-IVi-Luc cells implanted in the brainstem; assay: Orthotopic SU-DIPG-IVi-Luc brainstem glioma model in NSG mice; type: in vivo, NOD/LtSz-scid IL2R gamma (NSG) mice
Experimental: For the mouse model, the immortalized SU-DIPG-IV line was used. SU-DIPG-IVi was transduced by a luciferase vector (Luc) with a MOI of 10. Two days after birth, 10^5 SU-DIPG-IVi-Luc cells in 2 μl were injected directly into the brainstem through the neck to a depth of 3 mm using a 2 μl NeuroSyringe (Hamilton Neuros, Dutscher, Bruxelles, Belgium) under anesthesia with 2% isoflurane and 50% oxygen enrichment. […] Tumor growth was evaluated non-invasively with anesthetized mice on a Biospace imager (Biospace Lab, Nesles la Vallée, France) 1-2 days after each treatment.
Prior to treatments, mice were micro-tattooed (Aramis kit, BiosebLab, France). Animals were weighed and then receive an i.p. injection in the lower right quadrant following IACUC recommendations. A 1 ml tuberculin syringe and a 26-gauge needle were used with an injection volume of 200 μl for a 30 g mouse (3 mg/ml), adjusted to actual weight each week. Treatment was done 3 times a week, starting at day 8. Tumor growth was evaluated non-invasively on a Biospace imager (Biospace Lab, Nesles la Vallée, France). The entire procedure was carried out on a heating mat at 37° C. The animals were shaved and anesthetized in sterile condition (under PSM-2) in boxes dedicated to imaging. […]

Huh6 cells = assay: Cell viability assay (CellTiter 96 AQueous One / MTS) in Huh6; type: cell-based, human
Experimental: (§1) For 2D culture, a total of 2,000 cells/well for Huh6 and 3,000 cells/well for HepG2 were seeded in 96-well microtiter plates. Cell growth was measured at 24 h, 48h, 72h or 96h after genetic manipulation and at 48h or 72h after drug treatment using the in vitro MTS assay Kit or Sulforhodamine B (SRB, Absorbance at 565 nm) assay (Sigma) following manufacturer's instructions. For 3D culture, spheroids were formed as described above and microplates were incubated in an IncuCyte® S3 live cell analysis system and scanned every 8 hours. For genetic manipulation, the lentiviral transductions or the gene depletions were done before the plating. For drug treatments, depending on the experiment and the drug, spheroids were treated at day 4 or 5 for 48h or 72h. Cell viability assay in spheroids was done using 1 μM calcein AM (BioLegend) and 2 μM ethidium homodimer 1 (Sigma) for 30 minutes at 37° C. Spheroids were imaged using an IncuCyte® S3 live cell analysis system. For all cell viability assays, drugs were used at half maximal inhibitory concentration (IC50).

[5] = system: Huh6 and HepG2 hepatoblastoma cells; assay: Growth and viability of hepatoblastoma cells (Huh6 and HepG2), 2D and 3D spheroid; type: cell-based, human
Experimental: as §1

H3K27me3, HMGCR = assay: Western blots of H3K27me3 and HMGCR in hepatoblastoma cells; type: cell-based, human; settings: Huh6 and HepG2
Experimental: Cells were lysed and total proteins were extracted 48 hours after treatment or 72 hours after genetic manipulation using a mixture of RIPA buffer (Sigma), protease inhibitors and phosphatase inhibitor cocktail (Roche). After protein quantification with BCA Protein Assays (ThermoFisher), 40 μg of total proteins were loaded in 4-15% pre-casted gels (Bio-Rad) for migration. Then, proteins were transferred onto a nitrocellulose membrane (Transblot® Turbo midi-size, Bio Rad). The membranes were blocked with 5% BSA or Odyssey blocking buffer (LI-COR Biosciences) and detected with the corresponding antibodies (Table 2). The revelation was performed by chemiluminescence using Fusion FX (Vilber Lourmat) and quantification was done using ImageJ software (National Institutes of Health, Bethesda, Maryland, USA).

Huh6 and HepG2 cells [6] = assay: Lipid droplets assay in hepatoblastoma cells; type: cell-based, human
Experimental: The cells were plated in 6-well plate at a density of 250,000 cells per well. […] After 48 hours of treatment, the cells were fixed in 4% PFA for 15 minutes then stained with the red oil for 15 minutes at room temperature. Finally, cells were washed several times and scanned using InCellis microscope (Bertin Technologies, France).

xenopus embryos = assay: Toxicological assay in Xenopus embryos; type: in vivo; settings: treated from gastrula stage
Text: Embryos were left in solution until untreated control embryos reached stage 41.

Huh6 and HepG2 cells [7] = assay: Clonogenicity assay; type: cell-based, human; settings: GSK-126 3 and 4 μM for Huh6 and HepG2; ATR 8 μM; SIM 4 μM; 10 days
Experimental: Huh6 and HepG2 cells were seeded at 500 and 1000 cells/well respectively in 12-well plates. After attachment, cells were treated with drugs.
Following incubation at 37° C. for 10 days, the cells were fixed with 4% PFA and stained with 0.05% crystal violet. Reading under the Fusion FX (Vilber Lourmat).

Structure (SMILES): CC[C@H](C)n1cc(C)c2c(C(=O)NCc3c(C)cc(C)[nH]c3=O)cc(-c3ccc(N4CCNCC4)nc3)cc21 [GSK-126, 1-[(2S)-butan-2-yl]-N-[(4,6-dimethyl-2-oxo-1H-pyridin-3-yl)methyl]-3-methyl-6-[6-(1-piperazinyl)-3-pyridinyl]-4-indolecarboxamide]
- effect of low dose on DMG cell growth ([1]; 4 μM): does not affect
- pIC50 ([1]; Homo sapiens, three DMG cell lines, 72 h of treatment, read-out: IC50 (half maximal inhibitory concentration)): 4.99 to 5.12
- doses with significant growth inhibition ([1]; NEM157i and SU-DIPG-IVi): above 6 μM
- doses with total growth inhibition ([1]; NEM157i and SU-DIPG-IVi): above 25 μM
- tumor cell apoptosis [2]: increase in tumor cell apoptosis
- spheroid formation [3]: spheroid formation was affected
- tumor growth (bioluminescence) ([4]; GSK-126 6 mg/kg, Atorvastatin 10 mg/kg, after four treatments): No significant differences
- tumor growth (bioluminescence) ([4]; i.p. dose of 10 mg/kg, 3-times a week): significant growth reduction
- IC25 dose (Huh6 cells): 3 µM
- pIC50 (Huh6 cells; Homo sapiens, HuH-6): 5.22
- sensitivity of Huh6 and HepG2 cells in presence of Simvastatin or Atorvastatin ([5]; 72 h, 4 μM Simvastatin or 8 μM Atorvastatin): significantly increased (at least twice)
- pIC50 ([5]; Homo sapiens, hepatoblastoma cells, 48 h): 5.10 to 5.22
- trimethylation of histone H3 Lysine 27 (H3K27me3, HMGCR; GSK-126 at IC50): reduced
- expression of HMGCR (H3K27me3, HMGCR): triggered
- synthesis of lipids (Huh6 and HepG2 cells [6]): triggered
- toxic dose in xenopus embryos (xenopus embryos): 1 mM
- proliferation and survival of hepatoblastoma cells (clonogenic cell assay) (Huh6 and HepG2 cells [7]): little effect
